The values below are quoted from earlier work in patent publication US20050020546A1, “Pharmaceutical compositions comprising active vitamin D compounds” (Novacea, Inc., priority 2003, published 2005).

For the data set the following is noted: compared with calcitriol.

For `C=C1/C(=C/C=C2\CCC[C@]3(C)C([C@H](C)CC#CC(O)(C(F)(F)F)C(F)(F)F)=CC[C@@H]23)C[C@@H](O)C[C@@H]1O` [Ro24-5531], the Hypercalcemic effect result is listed as “reduced hypercalcemic effect”.

`C=C1/C(=C\C=C2/CCC[C@]3(C)C([C@H](C)CC#CC(C)(C)O)=CC[C@@H]23)C[C@@H](O)C[C@@H]1O` [Ro23-7553]: the Hypercalcemic effect result is reported as “reduced hypercalcemic effect”.
